Tests used:
[1] = type: in vivo, SCID mice; conditions: 5 mg/kg i.p.
CaCo-2 cells = conditions: average for Enn A, A1, B and B1, ref Meca et al., 2012; cited from earlier work
[2] = ref Manyes et al., 2014, cited from earlier work
[3] = type: in vivo, CB-17 scid/scid mice; conditions: KB-3-1 xenograft
[4] = Evaluation of toxicological effects: body weight, behavior, histology; type: in vivo, SCID mice; conditions: 5 mg/kg i.p., short-term and 9-day schedules
[5] = 5 mg/kg b.w. i.p. daily, 9 days, mean ± SD (n = 4)

For CC(C)C1NC(=O)C(C(C)C)OC(=O)C(C(C)C)N(C)C(=O)C(C(C)C)OC(=O)C(C(C)C)N(C)C(=O)C(C(C)C)OC1=O (stereo not shown) [Mono-demethylated-Enn B], the “Concentration in colon, quantified with Enn B calibration curve” value ([1]; 2-days Enn B-treated SCID mice) was 0.6 ± 0.09 µg/kg and the “Concentration in liver, quantified with Enn B calibration curve” value ([1]; 2-days Enn B-treated SCID mice) was 0.7 ± 0.1 µg/kg.

For CC[C@H](C)[C@H]1C(=O)O[C@H](C(C)C)C(=O)N(C)[C@@H]([C@@H](C)CC)C(=O)O[C@H](C(C)C)C(=O)N(C)[C@@H](C(C)C)C(=O)O[C@H](C(C)C)C(=O)N1C [Enn A1], the Apparent mean bioavailability (CaCo-2 cells) is listed as 80%.

For CC[C@H](C)[C@H]1C(=O)O[C@H](C(C)C)C(=O)N(C)[C@@H]([C@@H](C)CC)C(=O)O[C@H](C(C)C)C(=O)N(C)[C@@H]([C@@H](C)CC)C(=O)O[C@H](C(C)C)C(=O)N1C [Enn A], the Apparent mean bioavailability (CaCo-2 cells) is given as 80%, the Detection in kidneys ([2]; Enn A-fed Wistar rats) is given as “no Enn A was detected in kidneys” and the “Adverse effects (histological analyses, biochemical blood parameters)” value ([2]; repeated dose 20.91 mg Enn A/kg b.w./day, 28 days, feed) is given as “no adverse effects”.

For CC(C)[C@H]1C(=O)O[C@H](C(C)C)C(=O)N(C)[C@@H](C(C)C)C(=O)O[C@H](C(C)C)C(=O)N(C)[C@@H](C(C)C)C(=O)O[C@H](C(C)C)C(=O)N1C [Enn B, Enniatin B], the Apparent mean bioavailability (CaCo-2 cells) is given as 80%, the “Concentration in liver, quantified with Enn B calibration curve” value ([1]; 2-days Enn B-treated SCID mice) is given as 2.9 ± 0.6 µg/kg and the “Metabolites in serum, brain, muscle and kidney” value ([1]; short-term treatment) is given as “no metabolites were found”. The Concentration in serum [3, 5] was 5.4 ± 0.2 µg/kg, the Concentration in tumor [3, 5] was 2.8 ± 0.8 µg/kg and the “Degradation products (metabolites) in tumor tissues” value ([3]; 9-day treatment, 5 mg/kg i.p.) was “no degradation products could be found”. For the same compound, the “Apparent signs of toxicity (food and fluid consumption, fatigue, body weight alterations)” value [4] was “None of the treatment schedules showed apparent signs of toxicity”.

Source: article PMC5850989 (Toxicology letters, 2016)
